According to US20220042033A1, “COMPOSITION AND METHOD FOR CONFERRING AND/OR ENHANCING TOLERANCE AGAINST HERBICIDES BY USING VARIANTS OF PPO” (FarmHannong Co., Ltd., priority 2017, published 2022):

Columns and labels:
Format in all cases: cell-based
[1] = system: E. coli BT3(ΔPPO) transformed with Auxenochlorella protothecoides ApPPO1 (SEQ ID NO: 1) variant A215C (AC); test: Herbicide tolerance test in PPO-deficient E. coli BT3(ΔPPO), growth on plates; settings: Table 7, light, 37° C., 16 to 20 hours, vs wild type at highest herbicide concentration
[2] = system: E. coli BT3(ΔPPO) transformed with Auxenochlorella protothecoides ApPPO1 wild type, SEQ ID NO: 1; test: as above; settings: ApPPO1 WT, Table 7; light, 37° C., 16 to 20 hours; vs wild type at highest herbicide concentration
Procedure: (§1) Then, the extent of tolerance was evaluated.

[3] = system: E. coli BT3(ΔPPO) transformed with Auxenochlorella protothecoides ApPPO1 (SEQ ID NO: 1) variant Y422M (YM); test: as above; settings: Table 7, light, 37° C., 16 to 20 hours, vs wild type at highest herbicide concentration
Procedure: (§2) The mutated CyPPO gene obtained from the Example 2 was transformed to BT3 (ΔPPO) strain which is deficient of PPO activity and cultured in LB media with PPO-inhibiting herbicide, thereby examining whether growth of transformed BT3 was not inhibited.
(§3) BT3 competent cells were transformed with the pET303-ApPPO1 and pET303-MxPPO plasmids and those with a mutation(s) constructed in Example 2 respectively, and were cultured in LB agar media containing carbenicillin (Gold Biotechnology, Co., Ltd.).
(§4) Single colony of E. coli transformed with each CyPPO gene was cultured in 3 ml of LB broth containing carbenicillin overnight, and then was subcultured until absorbance (OD600) reached 0.5 to 1. Then, it was diluted with LB broth to OD600=0.5. Again, the diluted solution was serially diluted 4 times by a factor of one tenth.
(§5) The LB agar media (LB 25 g/l, Bacto agar 15 g/l) containing carbenicillin (100 μg/ml) and 0 to 4,000 μM of various herbicides dissolved in DMSO was prepared. Next, 10 μl of each diluted solution was dropped on the plate and cultured at 37° C. under light (Tables 7, 9 and 10, FIGS. 2 to 6, 13 to 20) or dark (Tables 8 and 11, FIGS. 7 to 12, 21 to 24) for 16 to 20 hours. Then, the extent of tolerance was evaluated.
(§6) The extent of herbicide tolerance of the ApPPO1 or MxPPO mutated genes was evaluated by comparing that of mutated genes with that of ApPPO1 or MxPPO wild type. The relative tolerance was represented with “+” as a factor of 10 times.
(§7) In Tables 7 to 11, tolerance level was presented as ‘−’ of tolerance of wild type and of variants equivalent to that of wild type, and was done as ‘+’ per each 10 fold resistance until ‘+++++’ as maximal resistance. […] A dilution series (OD600=0.5, 0.05, 0.005, 0.0005, 0.00005) was made and spotted on LB agar plates supplemented with herbicides.

[4] = system: E. coli BT3(ΔPPO) transformed with Auxenochlorella protothecoides ApPPO1 (SEQ ID NO: 1) variant V360M (VM); test: as above; settings: Table 7, light, 37° C., 16 to 20 hours, vs wild type at highest herbicide concentration
Procedure: as §2, §3, §4, §5, §6, §7

[5] = system: E. coli BT3(ΔPPO) transformed with Auxenochlorella protothecoides ApPPO1 (SEQ ID NO: 1) variant A215L (AL); test: as above; settings: Table 7, light, 37° C., 16 to 20 hours, vs wild type at highest herbicide concentration
Procedure: as §2, §3, §4, §5, §6, §7

[6] = system: E. coli BT3(ΔPPO) transformed with Auxenochlorella protothecoides ApPPO1 (SEQ ID NO: 1) variant Y422I (YI); settings: Table 7, light, 37° C., 16 to 20 hours, vs wild type at highest herbicide concentration
Procedure: as §2, §3, §4, §5, §6, §7

[7] = system: E. coli BT3(ΔPPO) transformed with Auxenochlorella protothecoides ApPPO1 (SEQ ID NO: 1) variant Y422T (YT); test: Herbicide tolerance test in PPO-deficient E. coli BT3(ΔPPO), growth on plates; settings: Table 7, light, 37° C., 16 to 20 hours, vs wild type at highest herbicide concentration
Procedure: as §2, §3, §4, §5, §6, §7

[8] = system: E. coli BT3(ΔPPO) transformed with Auxenochlorella protothecoides ApPPO1 (SEQ ID NO: 1) variant Y422C (YC); test: as above; settings: Table 7, light, 37° C., 16 to 20 hours, vs wild type at highest herbicide concentration
Procedure: as §2, §3, §4, §5, §6, §7

[9] = system: E. coli BT3(ΔPPO) transformed with Auxenochlorella protothecoides ApPPO1 (SEQ ID NO: 1) variant Y422L (YL); test: as above; settings: Table 7, light, 37° C., 16 to 20 hours, vs wild type at highest herbicide concentration
[10] = system: E. coli BT3(ΔPPO) transformed with Myxococcus xanthus MxPPO wild type, SEQ ID NO: 3; test: as above; settings: MxPPO WT, Table 9; light; tiafenacil to 2000 μM, saflufenacil to 200 μM, flumioxazin to 100 μM
Procedure: as §1

[11] = system: E. coli BT3(ΔPPO) transformed with Myxococcus xanthus MxPPO (SEQ ID NO: 3) variant M365L; test: as above; settings: Table 9, light, tiafenacil to 2000 μM, saflufenacil to 200 μM, flumioxazin to 100 μM
Procedure: as §2, §3, §4, §5
(§8) The extent of herbicide tolerance of the ApPPO1 or MxPPO mutated genes was evaluated by comparing that of mutated genes with that of ApPPO1 or MxPPO wild type. […]

[12] = system: E. coli BT3(ΔPPO) transformed with Myxococcus xanthus MxPPO (SEQ ID NO: 3) variant A170L; test: as above; settings: Table 9, light, tiafenacil to 2000 μM, saflufenacil to 200 μM, flumioxazin to 100 μM
Procedure: as §2, §3, §4, §5, §8

[13] = system: E. coli BT3(ΔPPO) transformed with Myxococcus xanthus MxPPO (SEQ ID NO: 3) variant I311M; test: as above; settings: Table 9, light, tiafenacil to 2000 μM, saflufenacil to 200 μM, flumioxazin to 100 μM
Procedure: as §2, §3, §4, §5, §8

[14] = system: E. coli BT3(ΔPPO) transformed with Myxococcus xanthus MxPPO (SEQ ID NO: 3) variant M365V; test: as above; settings: Table 9, light, tiafenacil to 2000 μM, saflufenacil to 200 μM, flumioxazin to 100 μM
Procedure: as §2, §3, §4, §5, §8

[15] = system: E. coli BT3(ΔPPO) transformed with Myxococcus xanthus MxPPO (SEQ ID NO: 3) variant M365I; test: as above; settings: Table 9, light, tiafenacil to 2000 μM, saflufenacil to 200 μM, flumioxazin to 100 μM
Procedure: as §2, §3, §4, §5, §8

[16] = system: E. coli BT3(ΔPPO) transformed with Myxococcus xanthus MxPPO (SEQ ID NO: 3) variant A170C; test: as above; settings: Table 9, light, tiafenacil to 2000 μM, saflufenacil to 200 μM, flumioxazin to 100 μM
Procedure: as §2, §3, §4, §5, §8

`C#CCN(C)c1c(C#N)cnn1-c1nn2c(c1Cl)CCCC2` [pyraclonil] was tested, and the “relative herbicide tolerance level” value [1] was “+ (1-9 fold higher tolerance)”, the “relative herbicide tolerance level” value [2] was “−” and the “relative herbicide tolerance level” value [3] was “++ (10-99 fold higher tolerance)”. For the same molecule, the “relative herbicide tolerance level” value [4] was “+ (1-9 fold higher tolerance)”, the “relative herbicide tolerance level” value [5] was “++ (10-99 fold higher tolerance)” and the “relative herbicide tolerance level” value [6] was “+ (1-9 fold higher tolerance)”. The “relative herbicide tolerance level” value [7] was “+ (1-9 fold higher tolerance)”, the “relative herbicide tolerance level” value [8] was “++ (10-99 fold higher tolerance)” and the “relative herbicide tolerance level” value [9] was “++ (10-99 fold higher tolerance)”.
With `CC(C)=C1OC(=O)N(c2cc(OC3CCCC3)c(Cl)cc2F)C1=O` [pentoxazone] the “relative herbicide tolerance level” value [1] was “+ (1-9 fold higher tolerance)”, the “relative herbicide tolerance level” value [2] was “−” and the “relative herbicide tolerance level” value [4] was “+ (1-9 fold higher tolerance)”. The “relative herbicide tolerance level” value [6] was “++ (10-99 fold higher tolerance)” and the “relative herbicide tolerance level” value [8] was “+++ (100-999 fold higher tolerance)”.
For `CS(=O)(=O)NC(=O)c1cc(Oc2ccc(C(F)(F)F)cc2Cl)ccc1[N+](=O)[O-]` [Fomesafen, fomesafen], the “relative herbicide tolerance level” value [1] was “+ (1-9 fold higher tolerance)”, the “relative herbicide tolerance level” value [2] was “−” and the “relative herbicide tolerance level” value [3] was “+ (1-9 fold higher tolerance)”. For the same molecule, the “relative herbicide tolerance level” value [4] was “+ (1-9 fold higher tolerance)”, the “relative herbicide tolerance level” value [5] was “+++ (100-999 fold higher tolerance)” and the “relative herbicide tolerance level” value [6] was “+ (1-9 fold higher tolerance)”. The “relative herbicide tolerance level” value [7] was “+ (1-9 fold higher tolerance)”, the “relative herbicide tolerance level” value [8] was “++ (10-99 fold higher tolerance)” and the “relative herbicide tolerance level” value [9] was “+ (1-9 fold higher tolerance)”.
With `CC(C)N(C)S(=O)(=O)NC(=O)c1cc(-n2c(=O)cc(C(F)(F)F)n(C)c2=O)c(F)cc1Cl` [saflufenacil] the “relative herbicide tolerance level” value [1] was “+ (1-9 fold higher tolerance)”, the “relative herbicide tolerance level” value [2] was “−” and the “relative herbicide tolerance level” value [10] was “−”. The “relative herbicide tolerance level” value [3] was “+++++ (more than 10,000 fold higher tolerance)”, the “relative herbicide tolerance level” value [4] was “+++ (100-999 fold higher tolerance)” and the “relative herbicide tolerance level” value [5] was “++++ (1,000-9,999 fold higher tolerance)”. For the same molecule, the “relative herbicide tolerance level” value [6] was “+++++ (more than 10,000 fold higher tolerance)”, the “relative herbicide tolerance level” value [7] was “++++ (1,000-9,999 fold higher tolerance)” and the “relative herbicide tolerance level” value [11] was “++ (10-99 fold higher tolerance)”. The “relative herbicide tolerance level” value [12] was “++ (10-99 fold higher tolerance)”, the “relative herbicide tolerance level” value [8] was “+++ (100-999 fold higher tolerance)” and the “relative herbicide tolerance level” value [9] was “++++ (1,000-9,999 fold higher tolerance)”. The “relative herbicide tolerance level” value [13] was “++ (10-99 fold higher tolerance)”, the “relative herbicide tolerance level” value [14] was “+++ (100-999 fold higher tolerance)” and the “relative herbicide tolerance level” value [15] was “++ (10-99 fold higher tolerance)”. For the same molecule, the “relative herbicide tolerance level” value [16] was “+++ (100-999 fold higher tolerance)”.
With `CCOC(=O)COc1cc(-c2nn(C)c(OC(F)F)c2Cl)c(F)cc1Cl` [pyraflufenethyl, pyraflufen-ethyl] the “relative herbicide tolerance level” value [2] was “−”, the “relative herbicide tolerance level” value [5] was “+++ (100-999 fold higher tolerance)” and the “relative herbicide tolerance level” value [6] was “++ (10-99 fold higher tolerance)”. The “relative herbicide tolerance level” value [8] was “+++ (100-999 fold higher tolerance)”.
`O=C(O)c1cc(Oc2ccc(C(F)(F)F)cc2Cl)ccc1[N+](=O)[O-]` [acifluorfen] was tested, and the “relative herbicide tolerance level” value [1] was “++ (10-99 fold higher tolerance)”, the “relative herbicide tolerance level” value [2] was “−” and the “relative herbicide tolerance level” value [3] was “++ (10-99 fold higher tolerance)”. For the same molecule, the “relative herbicide tolerance level” value [4] was “++ (10-99 fold higher tolerance)”, the “relative herbicide tolerance level” value [5] was “+++ (100-999 fold higher tolerance)” and the “relative herbicide tolerance level” value [6] was “+ (1-9 fold higher tolerance)”. For the same molecule, the “relative herbicide tolerance level” value [7] was “+ (1-9 fold higher tolerance)”, the “relative herbicide tolerance level” value [8] was “++ (10-99 fold higher tolerance)” and the “relative herbicide tolerance level” value [9] was “++ (10-99 fold higher tolerance)”.
